Source: patent publication US6827926B2, “Metallotetrapyrrolic photosensitizing agents for use in photodynamic therapy” (Miravant Pharmaceuticals, Inc., priority 2001, dated 2004)
Where two headings read alike, the source gives them in different places.

Experiments:
[1] = test system: normal skin of CD Hairless male rats; assay type: in vivo, rat
From the text: We tested metallo- and metal-free tetrapyrroles systemically (see following section) for normal skin response in relation to the pharmacodynamic distribution of the photosensitizers in CD hairless rats. The skin of CD hairless rats are poorly developed, often referred to as hyperkeratotic, with various sized cystic hair follicles containing concentric lamellar accumulations of keratinaceous material, which are often associated with enlarged sebaceous glands. It quickly became apparent that gallium tetrapyrroles induced a marked clearing of the hyperkeratotic lesions in the treatment areas on the hairless rats. In fact, this clearing could be induced without necrosis of the skin. No other metallotetrapyrrole type produced such effects. This observation led us to assess the metallotetrapyrrolic compounds for skin restructuring effects both topically and systemically and for their ability to reduce hair growth in the following animal models.
Photosensitizer normal skin response as well as skin healing response, was evaluated using CD Hairless male rats. Photosensitizers were administered in an liposomal egg yolk phospholipid formulation at 1, 1.5 and 2 μmol/kg body weight formulation per dose group as a single bolus intravenous injection given through a marginal tail vein using a 27 gauge needle and a 1 cc tuberculin syringe. Normal skin responses were evaluated by irradiating several spots on the skin of the rat with a 532 nm laser (150 mW/cm^2, 150J, 1 cm diameter) at 1, 6, 24, 48, and 96 hrs post injection. Normal skin responses were evaluated and documented. The time at which the last spot is observed at the concentration injected is reported in the far right hand column in Tables 3, 4, 5 and 6. Skin samples were taken for histological evaluation at days 1, 10, 20 and 22 post light treatment. Rats were housed under normal lighting and all study procedures involving the test article were conducted under light filtered through blue and green Roscolox light filters to prevent photoactivation or degradation of the drug.

[2] = test system: V79 (Chinese Hamster Lung Fibroblasts) cells; experiment: In vitro cytotoxicity assay (light EC50, Alamar blue); assay type: cell-based
Summary of the method: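 V79 cells in phenol-free 5% FBS/DMEM exposed 24 h to photosensitizer at final 0.01–5.0 μM, six replicates, then washed and light-treated, with a dark plate as control. Survival by Alamar blue after 24 h dark incubation, read at 570/600 nm.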

[3] = test system: normal uninjured rat carotid arteries (medial and adventitial cell populations); experiment: In vivo rat carotid artery acellularity after PDT; parameters: species or system Sprague Dawley rats; details: for Max % rat Artery Accelularity: Table 3; for Max % Rat Artery Accelularity: Table 4, 575 nm (Pt 532 nm)
Protocol: The acute effects of metallated photosensitizers, in response to light activation, to cause depletion of cell populations in the medial and adventitial layers of vessels was measured in normal uninjured rat carotid arteries. […] Shortly before the light treatment, the rats were anaesthetized with 3.5% isoflurane (Abbott Laboratories, IL, USA) and the femoral region of the right leg was shaved and cleaned. […] A direct arteriotomy was performed and a light balloon catheter ([…] Medical Technologies, Inc) was introduced into the vessel and advanced retrogradely into a non-manipulated region of the left common carotid artery via the abdominal aorta. […] After light treatment and removal of the catheter, the right femoral artery was tied off and the skin wound was closed. Rats were sacrificed three days post treatment as this corresponds to the known peak time that vascular cells, e.g., VSMC and myofibroblasts, proliferate and migrate in response to an injury. The area spanning both left and right carotid arteries and surrounding tissue was harvested, fixed, embedded in paraffin and sectioned. The tissues were stained with Hematoxylin and Eosin (Fisher Scientific, PA) and examined by light microscopy to histologically assess the cell population density in the medial and adventitial layers of the PDT-treated vessel wall. […] Metallo azaporphyrins with Ga, Zn, Al, Sn were excited at 575 nm, while Pt azaporphyrins were excited at 532 nm.

[4] = Table 3, time of last skin spot observed post injection, 1 μmol, 532 nm laser
[5] = Table 3 porphyrins, 24 h drug incubation, 532 nm, 1.25 J/cm^2, read-out: In Vitro EC50 Light
[6] = drug dose 1 μMol, 50 J/cm^2, 3 days post treatment
[7] = Table 4 azaporphyrins, 575 nm (Pt azaporphyrins 532 nm), 1.25 J/cm^2, read-out: In Vitro EC(50)

Normal skin Response (1 μmol) ([1]; rat, in vivo) [h]	Compound	EC50 [2, 5] [nM]	Max % rat Artery Accelularity [3, 6] [%]	further results
6	CCC1=C(C)c2cc3[n-]c(cc4nc(cc5[n-]c(cc1n2)c(C)c5CC)C(C)=C4CCCCC(=O)OC)c(CCCCC(=O)OC)c3C.[Cl-].[Ga+3] [Example 57, Gallium Chloride 8,13-diethyl-3,7,12,17-tetramethylporphyrin-2,18-di(pentanoic acid methyl ester)]	460	80	factor of decrease of normal skin response / skin clearance time versus the parent methyl ester ([1]; rat, in vivo): 8; acellularity (rat artery) ([3]; text b234, 1 μmol/Kg (printed 1 mol/Kg for 57)): 80%
96	CCC1=C(C)c2cc3[n-]c(cc4nc(cc5[n-]c(cc1n2)c(C)c5CC)C(C)=C4CCCO)c(CCCO)c3C.[Cl-].[In+3] [Example 72, Indium Chloride 8,13-diethyl-3,7,12,17-tetramethylporphyrin-2,18-di(3′-hydroxypropyl)]	40	–	Max % rat Artery Accelularity ([3]; drug dose 0.5 μMol): 40%
24	CCCOC(=O)CCCCC1=C(C)C2=Cc3c(CC)c(C)c4[n]3[Ga-2]35([Cl])[n]6c(c(C)c(CCCCC(=O)OCCC)c6=CC1=[N+]23)=CC1=[N+]5C(=C4)C(CC)=C1C [Example 56, Gallium Chloride 8,13-diethyl-3,7,12,17-tetramethylporphyrin-2,18-di(pentanoic acid propyl ester)]	400	75	–
24	CC1=Cc2cc3[n-]c(cc4nc(cc5[n-]c(cc1n2)c(C)c5CCC(=O)OCC(F)(F)F)C(CCC(=O)OCC(F)(F)F)=C4C)cc3C.[Cl-].[Ga+3] [Example 38, Gallium Chloride Deuteroporphyrin di (2,2,2-trifluoroethylester)]	400	80	–
24	CCOC(=O)CCC1=C(C)C2=Cc3c(CC)c(CC)c4[n]3[Ga-2]35([Cl])[n]6c(c(C)c(CCC(=O)OCC)c6=CC1=[N+]23)=CC1=[N+]5C(=N4)C(CC)=C1CC [Example 89, Gallium Chloride 7,8,12,13-tetraethyl-12,17-dimethyl-10-azaporphyrin-2,18-di(propionic acid ethyl ester)]	–	–	EC50 [2, 7]: 400 nM; Max % Rat Artery Accelularity ([3]; drug dose 1 μMol): 60%
6	C=CC1=C(C)C2=Cc3c(C=C)c(C)c4[n]3[Al-2]35([Cl])[n]6c(c(C)c(CCC(=O)OC)c6=CC6=[N+]3C(=C4)C(C)=C6CCC(=O)OC)=CC1=[N+]25 [M=Al R1=V R3=Me R4=V R2=CO2Me]	3500	0	–
24	CCC1=C(C)C2=Cc3c(CC)c(C)c4[n]3[Ga-2]35([Cl])[n]6c(c(C)c(CCCC(=O)OCCF)c6=CC6=[N+]3C(=C4)C(C)=C6CCCC(=O)OCCF)=CC1=[N+]25 [M=Ga R1=Et R3=Me R4=Et R2=CH2CO2CH2CH2F]	400	75	–
6	Gallium Chloride Mesoporphyrin III Dimethyl Ester [Example 115]	300	10	–
6	COC(=O)CCC1=C(C)c2cc3[n-]c(cc4nc(cc5[n-]c(cc1n2)c(CCC(=O)OC)c5C)C(Br)=C4C)c(Br)c3C.[Cl-].[Ga+3] [Example 39, Gallium Chloride 3,8-dibromodeuteroporphyrin dimethyl ester]	400	75	–

The remaining lines, values behind:

Compound	Normal skin Response (1 μmol) ([1]; rat, in vivo) [h]	EC50 [2, 5] [nM]	Max % rat Artery Accelularity [3, 6] [%]	further results
C=CC1=C(C)c2cc3[n-]c(cc4nc(cc5[n-]c(cc1n2)c(C)c5CCC(=O)OC)C(CCC(=O)OC)=C4C)c(C)c3C=C.[Cl-].[Ga+3] [Example 42, Gallium Chloride Protoporphyrin Dimethyl Ester]	–	480	70	Normal skin Response (1 μmol) [1, 4]: 6 h
CCC1=C(C)C2=[N+]3C1=Cc1c(C)c(CC)c4[n]1[Ga-2]31([Cl])[n]3c(c(C)c(CCC(=O)NCCOC)c3=CC3=[N+]1C(=C4)C(C)=C3CCC(=O)NCCOC)=C2 [Example 11, Gallium Chloride Mesoporphyrin di-(2′-methoxyethyl amide)]	6	1900	30	–
CCOC(=O)CCC1=C(C)c2cc3[n-]c(cc4nc(cc5[n-]c(cc1n2)c(CCC(=O)OCC)c5C)C(CC)=C4C)c(CC)c3C.[Cl-].[Ga+3] [Example 2, Gallium Chloride Mesoporphyrin Diethyl Ester]	24	490	80	–
CCC1=C(CC)C2=Nc3c(CC)c(CC)c4[n]3[Ga]([Cl])[n]3c(c(C)c(CCCC(=O)OC)c3=CC3=NC(=C4)C(C)=C3CCCC(=O)OC)=CC1=N2 [Example 108, Gallium Chloride 7,8,12,13-tetraethyl-12,17-dimethyl-10-azaporphyrin-2,18-di(butanoic acid methyl ester)]	–	–	–	Normal skin Response (1 μmol) ([1]; Table 4, time of last skin spot observed post injection, 1 μmol): 24 h; EC50 [2, 7]: 400 nM; Max % Rat Artery Accelularity ([3]; drug dose 1 μMol): 55%
CCC1=C(C)C2=NC1=Cc1c(C)c(CC)c3[n]1[Sn]([Cl])([Cl])[n]1c(c(C)c(CCCC(=O)OC)c1=CC1=NC(=C3)C(C)=C1CCCC(=O)OC)=C2 [Example 45, Tin(IV) Dichloride 8,13-diethyl-3,7,12,17-tetramethylporphyrin-2,18-di(butanoic acid methyl ester)]	–	1500	20	Normal skin Response (1 μmol) [1, 4]: 24 h
CCC1=C(C)c2cc3[n-]c(cc4nc(cc5[n-]c(cc1n2)c(C)c5CC)C(C)=C4CCC(=O)[O-])c(CCC(=O)[O-])c3C.[Ga+3].[Na+].[Na+].[OH-] [Example 109, Gallium Hydroxy Mesoporphyrin Disodium Salt]	–	2400	–	Normal skin Response (1 μmol) in hrs ([1]; rat, in vivo): none; normal skin response at the drug doses used ([1]; rat, in vivo): no observed normal skin response; acellularity following PDT of rat arteries at longer treatment times post injection ([3]; 16, 24 hrs post injection): significant acellularity; accelularity in rat artery at a four hour treatment point ([3]; 4 hrs post administration): 10%; Max % rat Artery Accelularity ([3]; drug dose 1 μMol, 4 hrs): 10/4 hrs. %; Max % rat Artery Accelularity ([3]; drug dose 1 μMol, 24 hrs): 100/24 hrs %
CCC1=C(CC)C2=[N+]3C1=Nc1c(CC)c(CC)c4[n]1[Ga-2]31([Cl])[n]3c(c(C)c(CCC(=O)OC)c3=CC3=[N+]1C(=C4)C(C)=C3CCC(=O)OC)=C2 [Example 21, Gallium Chloride 7,8,12,13-tetraethyl-12,17-dimethyl-10-azaporphyrin-2,18-di(propionic acid methyl ester)]	24	–	–	EC50 [2, 7]: 400 nM; Max % Rat Artery Accelularity ([3]; drug dose 1 μMol): 60%
CCC1=C(C)c2cc3[n-]c(cc4nc(cc5[n-]c(cc1n2)c(C)c5CCC(=O)OC)C(CCC(=O)OC)=C4C)c(C)c3CC.[Cl-].[In+3] [Example 31, Indium Chloride Mesoporphyrin Dimethyl Ester]	96	70	90	–
Gallium Chloride 8,13-diethyl-3,7,12,17-tetramethylporphyrin-2,18-di(3′-hydroxypropyl) [Example 7]	48	550	95	reduction of smooth muscle cells in the media and myofibroblasts in the adventitial layers of rat arteries ([3]; text b238): efficient at dramatically reducing the number of smooth muscle cells
CCOC(=O)CCC1=C(C)c2cc3[n-]c(cc4nc(cc5[n-]c(cc1n2)c(CCC(=O)OCC)c5C)C=C4C)cc3C.[Cl-].[Ga+3] [Example 5, Gallium Chloride Deuteroporphyrin Diethyl Ester]	48	400	80	–
